This is an account of results in US8182983B2, “Method for determining immune system affecting compounds” (Canimguide Therapeutics AB, priority 2002, dated 2012).

Holding throughout (format): cell-based, human
The subject of data set [1] is normal PBMCs. As to the kind of experiment: Fragmentation of IgG and serum albumin using MMPs, IL-6 inducing activity of supernatants. To be noted: supernatants tested on normal PBMCs; for release of fragments inducing or modulating IL-6 production from IgG: IgG incubated with MMP; for release of fragments inducing or modulating IL-6 production from albumin: serum albumin incubated with MMP. Here is the method: MMP-1, -2, -13 (R&D Systems) and MMP-3 and -7 (Chemicon, UK) were activated according to instructions of the manufacturer. […] The mixtures were incubated for 5-20 hours at 37° C. Parallel incubations of MMP or the substrates alone, in respective buffer, were set up as controls. The mixtures were buffer exchanged to RPMI as described previously and filtered through a 0.45 μm Millex-HV syringe filter (Millipore, MA, US). Storing of mixtures, when needed, was performed at −70° C. until analysing by gel-electrophoresis and testing for monokine inducing activity in fresh, normal PBMC as described above.

For data set [2], the system named is PBMC from healthy volunteers. As to the kind of experiment: Inhibition of IL-1Ra production by PBMC with Tosyl. Here is the method: Monokines were assessed by ELISA using the DuoSet ELISA development system for human IL-6, TNF-α or IL-1β (R&D Systems Europe, Ltd. UK) following the manufacturer's recommended procedures. Lower limit of detection was […] for IL-6, […] for TNF-α and […] for IL-1β. IL-10 was detected with a kit from Diaclone Research, FR. The lower limit of detection was […]. Human IL-1Ra was detected with a quantitative sandwich ELISA using a monoclonal mouse anti-human IL-1Ra as capture antibody and a biotinylated goat anti-human IL-1Ra as developing antibody (both from R&D Systems). […] Following incubation for 1 hr at room temperature, plates were washed and the amount of bound IL-1Ra was measured by hydrolysis of paranitrophenyl phosphate (Sigma). Optical density was read at dual wavelengths, 405 nm and 570 nm, respectively, in a Multiscan EX microplate reader (Labsystems). […]
Inhibition of IL-1Ra production by PBMC with Tosyl PBMC (2×10^6/ml) from healthy volunteers were pre-incubated with various concentrations of Na-p-Tosyl-L-lysine chloromethyl ketone (Tosyl, Sigma) diluted in RPMI1640/2% HSA for 30 minutes at 37° C. after which the cell suspensions were washed three times in RPMI/2% HSA. […] Viability of cultured PBMCs were also assessed after 24 hrs by Trypan blue exclusion and found to be 100%. […]

The next data set has as its system PBMC from healthy donors. Nature of the data set: IL-2 induced proliferation of PBMC in the presence of collagen/collagen fragments. To be noted: collagen 26 ug/ml, PBMCs from healthy donors, autologous serum. Here is the method: 100 μl of RPMI1640 supplemented with 200 IU/ml penicillin, […] streptomycin, 4 mM L-glutamine (all from Sigma Chemical Co. MO, US) and 20% heat-inactivated human serum (autologous or from cancer patients) were added to uncoated, HSA or HSA/IgG coated tissue culture microtiter plates. PBMC, isolated from healthy individuals or patients with metastatic renal cell carcinoma, were diluted in RPMI/2%1-ISA at a concentration of 5×10^5/ml and 100 μl were added to the microtiter wells. Interleukin-2 (IL-2, Proleukin, Chiron, NL), at a final concentration of 120 IU/well, was added to some wells. Cells were cultured for 7 days in a humidified, 5% CO2-atmosphere at 37° C.
Proliferation was assayed by incorporation of 1.6 μCi/well of [3H]-thymidine (Amersham Int., UK) during the last 18 hrs. Mean values of dpm (disintegrations per minute) of triplicates were used for the calculations.
Purified collagen from human skin (Sigma) at a concentration of 100 µg/ml was incubated in 100 mM Tris-HCl, pH 7.6, containing 0.15 M NaCl, 10 mM CaCl2 and 0.05% Brij35 over night at 37° C. The buffer was then exchanged to RPMI1640 by gel filtration through a Sephadex-G25 (PD-10) column (Amersham Biosciences) and filtered through a 0.45 μm Millex-HV syringe filter (Millipore) and frozen at −70° C. until use. […]

Another data set concerns PBMC from RCC patients. As to the kind of experiment: TNF-α in PHA stimulated PBMC cultures with chlorambucil. To be noted: chlorambucil 1 μg/ml, 72 hours, responders vs non-responders to interleukin-2. Here is the method: PHA stimulated proliferation of PBMC with and without chlorambucil Venous blood was drawn at the indicated time points from RCC patients undergoing IL-2 (Proleukin, Chiron, NL) therapy. Mononuclear cells were isolated by Ficoll-Isopaque (Pharmacia, SE) density gradient centrifugation. 5×10^4 PBMC in a final volume of 200 μl were seeded into round-bottomed microtiter plates (Corning Inc. NY, US) in culture medium consisting of RPMI 1640 supplemented with 100 IU/ml Penicillin, 100 μg/ml Streptomycin (Flow laboratories) and 10% heat-inactivated, autologous fresh serum. […]
PHA-stimulated cultures with or without chlorambucil (1 µg/ml) were set up in parallel as described above for mitogen-stimulated cultures. […] The amount of TNF-α in the SNs was evaluated with an ELISA kit from Immunotech S.A., FR, according to the manufacturer's instructions. […]
Comparisons between the proliferative response to PHA in different groups or at different test occasions were done on logarithmated mean values of dpm of triplicates using unpaired t-test. For the determination of the effect of addition of CHL on the proliferative response of PHA-stimulated PBMCs, a modulation index (MI) was calculated according to the following formula: MI=log(dpm PHA+drug/dpm PHA).

Data set [3] has as its system normal PBMCs. Nature of the data set: Homogenised, washed tumour tissue incubated with MMP-2, IL-6 inducing activity. To be noted: MMP-2 5 ng/ml; 20 hours at 37° C. Here is the method: The collection, washing and homogenisation of tumour cryo sections (3×300 μm) were carried out as described above. The pelleted tumour tissue was suspended in 0.5 ml cold RPMI/PEST. MMP-2 (R&D Systems, UK), activated according to instructions from the manufacturer, was added at a final concentration of 5 ng/ml. The tumour tissue suspension was incubated with MMP-2 for 20 h at 37° C. and the supernatant collected after centrifugation. Parallel incubation of tumour tissue with no addition of MMP-2 was set up as a control. The mixtures were buffer exchanged to RPMI by gel filtration through a Sephadex-G25 (PD-10) column (Amersham Biosciences, SE) and filtered through a 0.45 μm Millex-HV syringe filter (Millipore, MA, US). Finally, the mixtures were analysed by gel-electrophoresis and tested for monokine inducing activity in fresh normal PBMC as described above.

For “MMP-3: matrix metalloproteinase (Chemicon), activated”, in the data set with normal PBMCs [1], the “release of fragments inducing or modulating IL-6 production from IgG” value (shortened to “release … from IgG”) is recorded as “released active fragments” and the “release of fragments inducing or modulating IL-6 production from albumin” value (“release … from albumin” below) was “released active fragments”.

With “MMP-7: matrix metalloproteinase (Chemicon), activated”, the “release … from IgG” value with normal PBMCs [1] is given as “released active fragments”.

With “MMP-1: matrix metalloproteinase (R&D Systems), activated”, the “release … from albumin” value in the data set on normal PBMCs [1] is “released active fragments”.

As for `Cc1ccc(S(=O)(=O)NC(CCCCN)C(=O)CCl)cc1` [Tosyl, Na-p-Tosyl-L-lysine chloromethyl ketone], the “Viability of cultured PBMCs by Trypan blue exclusion” value in data set [2] (after 24 hrs, PBMC pre-incubated with Tosyl) is 100%. The “effect on production of IL1Ra” value in data set [2] (non-toxic concentrations, PBMC from healthy individuals (n=9), plates pre-coated with HSA or HSA/IgG) was “significantly reduced production”.

Turning to collagen, the results for the “effect on IL-2 induced proliferation” value in the data set with PBMC from healthy donors and in the data set on PBMC from healthy donors (listed as collagen/collagen fragments) were “strongly inhibitory effect” and “strong inhibitory effect was demonstrated in two out of three experiments”, respectively.

Turning to `O=C(O)CCCc1ccc(N(CCCl)CCCl)cc1` [chlorambucil, Chlorambucil], the “TNF-α production in PHA stimulated cultures with chlorambucil” value in the data set with PBMC from RCC patients is recorded as “in non-responders TNF-α production is more stimulated than in responders”.

B1: MMP-2: matrix metalloproteinase (R&D Systems), activated (protein, UniProt P08253 110-660, looked up)
72 kDa type IV collagenase: YNFFPRKPKWDKNQITYRIIGYTPDLDPETVDDAFARAFQVWSDVTPLRFSRIHDGEADIMINFGRWEHGDGYPFDGKDGLLAHAFAPGTGVGGDSHFDDDELWTLGEGQVVRVKYGNADGEYCKFPFLFNGKEYNSCTDTGRSDGFLWCSTTYNFEKDGKYGFCPHEALFTMGGNAEGQPCKFPFRFQGTSYDSCTTEGRTDGYRWCGTTEDYDRDKKYGFCPETAMSTVGGNSEGAPCVFPFTFLGNKYESCTSAGRSDGKMWCATTANYDDDRKWGFCPDQGYSLFLVAAHEFGHAMGLEHSQDPGALMAPIYTYTKNFRLSQDDIKGIQELYGASPDIDLGTGPTPTLGPVTPEICKQDIVFDGIAQIRGEIFFFKDRFIWRTVTPRDKPMGPLLVATFWPELPEKIDAVYEAPQEEKAVFFAGNEYWIYSASTLERGYPKPLTSLGLPPDVQRVDAAFNWSKNKKTYIFAGDKFWRYNEVKKKMDPGFPKLIADAWNAIPDNLDAVVDLQGGGHSYFFKGAYYLKLENQSLKSVKFGSIKSDWLGC
modifications: activated
With B1, in the data set on normal PBMCs [1], the “release … from IgG” value is “released active fragments” and the “release … from albumin” value is reported as “released active fragments”. In addition, the “release of IL-6 inducing activity from washed tumour tissue” value in the data set on normal PBMCs [3] is “modulated the release of IL-6 inducing activity”.
